Measured values reported in US6455271B1, “Identification of novel antimicrobial agents using membrane potential indicator dyes” (XOMA Technology, Ltd, priority 1998, dated 2002).
≈ marks a conversion by molar mass, not a printed value. Read-outs that look alike come from different tables or passages of the source. Square brackets hold non-standard residues; d marks the D form. Peptide text beside a SMILES is read from it.

Key:
MDCK cells = tested on: MDCK cells
Description: (§1) The relative effect of varying concentrations of the antifungal agent miconazole on fungal C. albicans cells treated with membrane potential indicator dye DiOC6(3) [Molecular Probes], mammalian MDCK cells treated with DiOC6(3) and mammalian MDCK cells treated with PI, was assessed as described above in Examples 1 and 2, except that fungal C. albicans or mammalian MDCK cells were resuspended to a concentration of 1×10^6 cells/mL.

[1] = tested on: Candida albicans strain SLU#1; assay: Flow cytometry of fungal cells treated with test agent and membrane potential dye DiOC6(3); type: cell-based; conditions: for concentration at which loss of fungal cell viability occurs: C. albicans SLU#1; for change in DiOC6(3) fluorescence intensity (mean channel from baseline) vs. concentration: C. albicans, 1 hour incubation with agent, 10 ng/mL DiOC6(3), FL1 530 nm, FIG. 1 / FIG. 3
Description: A stock fungal cell suspension was prepared as follows. Fungi (Candida albicans strain SLU#1) were cultured on Sabouraud's dextrose agar plates [1 L water, 10 g neopeptone, 20 g dextrose, 15 g Bacto Agar]. One or two colonies from the agar plate were inoculated into 5 mL of Sabouraud's dextrose broth (SDB) [1 L water, 10 g neopeptone, 20 g dextrose] in a sterile 10 mL polypropylene tube and incubated for about 18 hours at 30° C. After this incubation, 4 mL of the fungal culture was inoculated into a flask containing 100 mL of SDB and incubated for about 5 hours or until log growth phase was reached. The culture was centrifuged at 3000 rpm for 5 minutes (Sorvall RT6000B centrifuge), the supernatant was decanted and the pellets were resuspended in a total of 30 mL of SDB. Fungal cell concentration was determined either by absorbance at 570 nm or by diluting 1:10 with Trypan Blue and counting the number of fungal cells using a hemacytometer. The suspension was diluted with SDB to obtain a stock fungal cell suspension of approximately 1-2×10^6 CFU/mL.
Stock 1 mg/mL solutions of peptides XMP.391 and XMP.445 were prepared in saline, and six 2-fold serial dilutions were prepared using phosphate buffered saline (PBS). The fungal cell suspension was divided into 1 mL aliquots, and approximately 20 μL of each serial dilution of XMP.391 or XMP.445 peptide solution was added to an aliquot of fungal cell suspension to obtain final peptide concentrations of 0.313, 0.625, 1.25, 2.5, 5, 10 and 20 μg/mL in the aliquots. No peptide solution was added to the auto-fluorescence and baseline controls. The aliquots were incubated for 1 hour at 30° C. After the incubation, all aliquots were centrifuged at 3000 rpm for 5 minutes (Sorvall RT6000B) and the supernatant removed. The auto-fluorescence control aliquot was resuspended in 1 mL of SDB; the remainder of the samples and the baseline control were resuspended in 1 mL of 10 ng/mL DiOC6(3)/SDB. The auto-fluorescence control thus contained fungal cells in SDB alone (without XMP peptide and without dye), while the baseline control contained fungal cells with dye (but without XMP peptide). […]
The samples were analyzed for fluorescence on the FACScan flowcytometer [Becton-Dickinson, Mountain View, Calif.] using the fl1 detector at a wavelength of 530 nm using the following parameters:
The auto-fluorescence control was used for gating and fluorescence sensitivity was determined using the baseline control. The percent change in fluorescent intensity, expressed as mean channels, was determined by dividing the difference between the sample and baseline values by the baseline value: (sample fl1−baseline fl1)/baseline fl1×100.

[2] = tested on: Madin-Derby canine kidney epithelial (MDCK) cells
Description: The same procedure was also carried out using mammalian Madin-Derby canine kidney epithelial (MDCK) cells (ATCC Accession No. CCL34). The MDCK cells were cultured until confluent in MEM media supplemented with 10% fetal calf serum (FCS) and L-glutamine. The cells were harvested and resuspended to approximately 1-2×10^6 cells/mL in RPMI media, treated with XMP.391 or XMP.445 at concentrations varying from 5 μg/mL to 100 μg/mL, and incubated for 1 hour. The cells were then stained with DiOC6(3) for 30 minutes and fluorescence intensity was determined in the same manner as described above for C. albicans.
as §1

C. albicans SLU#1 strain = type: cell-based, Candida albicans
[3] = background statement; cited from earlier work
bacterial growth = conditions: background statement; cited from earlier work
C. albicans SLU#1 = assay: Propidium iodide (PI) uptake by fungal cells, flow cytometry; type: cell-based, Candida albicans; conditions: C. albicans SLU#1, 10 μg/mL PI, FL2 585 nm; FIG. 2
Description: As in Example 1, the auto-fluorescence control contained fungal or mammalian cells in media alone (without XMP peptide and without PI), while the baseline control contained fungal or mammalian cells with PI (but without XMP peptide). Because it is a viability dye, PI is taken up only when cells are dying or dead; the fluorescent intensity of PI-treated samples should increase with the number of dead cells and should be maximal with 100% dead cells. Thus, for this experiment, a positive control was also prepared (containing 100% dead cells) by resuspending cells in 1 mL of 70% ethanol during the last 10 minutes of the initial 1-hour incubation; this positive control thus contained 100% dead cells with PI (but without XMP peptide). Samples were analyzed for PI uptake on the FACScan using the fl2 detector at a wavelength of 585 nm. The auto-fluorescence sample was used for gating, while the fluorescence sensitivity was determined by the positive control and the PI uptake threshold was determined by the baseline control. The percent change in fluorescent intensity in mean channels was determined using the same equation used in Example 1, and the percentage of cells with PI uptake (ie., dead cells) was calculated.

Candida albicans, SLU-1 = assay: 28-day comparative survival efficacy study in mice systemically infected with Candida albicans, oral gavage; type: in vivo; conditions: for mortality vs dextrose-treated controls: male DBA/2 mice, eight times, 28 days
Description: XMP.445 was tested for activity upon oral administration (oral activity) in a 28-day comparative survival efficacy study in mice systemically infected with Candida albicans. Specifically, male DBA/2 mice (Charles River Laboratories) six weeks of age were dosed with 7.9×10^4 Candida albicans, SLU-1 in 100 μl intravenously via the tail vein in a single dosage on day 0. Treatment began immediately thereafter with 400 μl oral gavage of either 0.5% dextrose, or XMP.445 in 0.5% dextrose at levels of either 10 mg/kg or 20 mg/kg every other day for a total of eight times. Amphotericin B (Fungizone®) was administered intravenously at 0.5 mg/kg as a positive control every other day for a total of eight times. Twice-day monitoring (once daily on weekends and holidays) for mortality was performed.

fungal cells = assay: Confocal microscopy localization of membrane potential indicator dye in fungal cells; type: cell-based; conditions: DiOC6(3) 10 ng/mL or MitoTracker Red CM-H2Xros 1 μg/mL, 1 hour peptide incubation
Description: Confocal microscopy provides focused fluorescence detection, one plane or slice at a time, at a focus level that allows unobstructed localization of fluorescence within cells. A suspension of 1×10^6 fungal cells/mL was prepared as described above in Example 1 and 1 mL was dispensed into each of four Eppendorf microcentrifuge tubes. Two μL of 1 mg/mL XMP.445 (in saline) was added to two tubes and all four tubes were incubated for 1 hour at 30° C. After the incubation, all tubes were centrifuged in an Eppendorf 5415 centrifuge. The supernatant was removed and the pellet resuspended in 1 mL of SDB. The membrane potential indicator dye DiOC6(3) (diluted in SDB from a stock solution of 2 mg/mL in EtOH) was added to one set of peptide-treated and untreated tubes to a final concentration of 10 ng/mL. The membrane potential indicator dye MitoTracker™ Red CM-H2Xros (from a freshly prepared solution of 500 μg/mL in DMSO) was added to another set of peptide-treated and untreated tubes to a final concentration of 1 μg/mL. The tubes were incubated at 30° C. for 30 min. After the incubation the tubes were centrifuged and the supernatant removed. The pellets were resuspended in 100 μL of 30% glycerol/PBS solution. Three μL from each tube was pipetted onto a microscope slide with a No. 1 cover glass and placed onto a Zeiss 510 Confocal Microscope that uses LSM Version 2.01 software. […]

CACO-2 and MDCK cells = type: in vitro ADME
Description: Various BPI-derived peptides were screened for oral absorption in in vitro screening assays using CACO-2 and MDCK cells. Cultured monolayers of CACO-2 (Human colon carcinoma) [Audus, K. L., et al. Pharm. […] The cells were grown to confluency and allowed to differentiate. The integrity of the monolayers was determined by measuring the transepithelial resistance. The cells were incubated with peptide on the apical side for 2.5 hours in MDCK screening or 4 hours for CACO-2 screening. The transepithelial transport of the peptide was measured by quantitative HPLC analysis of the incubation media on the basolateral side of the cells. Radiolabelled mannitol and cortisone were used as positive controls.

Clc1ccc(COC(Cn2ccnc2)c2ccc(Cl)cc2Cl)c(Cl)c1 (stereo not drawn) [miconazole, reference compound]
mammalian cell viability by PI uptake (MDCK cells): increase in fluorescence intensity indicating cell death | concentration at which loss of fungal cell viability occurs [1]: less than or equal to 1 μg/mL | change in DiOC6(3) fluorescence intensity (mean channel from baseline) vs. concentration [1]: concentration-dependent increase in fluorescence intensity

CC[C@H](C)[C@H](NC(=O)[C@H](CC(C)C)NC(=O)[C@H](Cc1c[nH]c2ccccc12)NC(=O)CNC(=O)[C@@H](NC(=O)[C@@H](N)CCCCN)C(C)C)C(=O)N[C@@H](CCC(N)=O)C(=O)N[C@@H](CC(C)C)C(=O)N[C@@H](Cc1ccccc1)C(=O)N[C@@H](Cc1c[nH]cn1)C(=O)N[C@@H](CCCCN)C(=O)N[C@@H](CCCCN)C(=O)O [XMP.391] (H-KVGWLIQLFHKK-OH; N-terminus and C-terminus assumed)
change in DiOC6(3) fluorescence intensity in mammalian cells [2]: no substantial increase in fluorescence intensity | minimum fungicidal concentration (C. albicans SLU#1 strain): 2 µg/mL (≈ 1.34 µM)

gentamicin
concentration that produces a toxic effect [3]: 12000 ng/mL | concentration required to produce a therapeutic effect (bacterial growth): 8 µg/mL

CC[C@H](C)[C@H](NC(=O)[C@H](CC(C)C)NC(=O)[C@H](Cc1c[nH]c2ccccc12)NC(=O)CNC(=O)[C@H](NC(=O)[C@H](N)CCCCN)C(C)C)C(=O)N[C@@H](CCC(N)=O)C(=O)N[C@@H](CC(C)C)C(=O)N[C@@H](Cc1ccccc1)C(=O)N[C@@H](Cc1c[nH]cn1)C(=O)N[C@H](CCCCN)C(=O)N[C@H](CCCCN)C(=O)O [XMP.445] (H-[dK][dV]GWLIQLFH[dK][dK]-OH; N-terminus and C-terminus assumed)
fungal cell viability by PI uptake (C. albicans SLU#1): reduction of fungal cell viability or fungal cell death | mammalian cell viability by PI uptake (MDCK cells; MDCK cells, PI, XMP.445 even at a concentration of 50-fold or greater): did not substantially affect viability of mammalian cells | concentration at which loss of fungal cell viability occurs [1]: about 4 μg/mL | change in DiOC6(3) fluorescence intensity (mean channel from baseline) vs. concentration [1]: concentration-dependent increase in fluorescence intensity | mortality vs dextrose-treated controls (Candida albicans, SLU-1; oral gavage 10 mg/kg every other day): significant improvement (p-value of 0.025) | mortality vs dextrose-treated controls (Candida albicans, SLU-1; oral gavage 10 mg/kg or 20 mg/kg every other day): improvements in mortality compared with the dextrose-treated controls | oral activity (study conclusion) (Candida albicans, SLU-1; mice systemically infected with C. albicans, oral gavage): has oral antifungal activity | change in DiOC6(3) fluorescence intensity in mammalian cells [2]: no substantial increase in fluorescence intensity | minimum fungicidal concentration (C. albicans SLU#1 strain): 4 µg/mL (≈ 2.67 µM) | fluorescence intensity and localization by confocal microscopy vs untreated cells (fungal cells): increased fluorescence intensity that was localized at the mitochondria | intestinal absorption screening outcome (CACO-2 and MDCK cells): potential orally available compound
